Data taken from patent USRE48097E1, “Cephem compounds, their production and use” (priority 2015, dated 2020).
In brackets after ≈: the same amount, converted by molar mass. Like-named read-outs stand apart in the source and are kept apart here.

Tests used:
S. aureus 3147 = assay: MIC against S. aureus 3147; format: cell-based; conditions: Table 2, S. aureus 3147, MSSA
Procedure, shortened: (§1)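 Each cephem, with or without a β-lactamase inhibitor like NXL-104, is assayed against the strain. The lowest concentration preventing growth is recorded in μg/mL.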

K. pneumoniae 4106 = assay: MIC against K. pneumoniae 4106; format: cell-based; conditions: K. pneumoniae 4106, KPC-3, TEM-1, SHV-12, SHV-141
Method: (§2) As shown, the foregoing composition was tested for minimum inhibitory concentration (MIC, μg/mL) against bacteria listed in Tables 2-3.

C. freundii 15 = assay: MIC against C. freundii 15; format: cell-based; conditions: Table 2, C. freundii 15, Caz R, IMP S
Procedure, shortened: as §1

S. aureus3137 = assay: MIC against S. aureus3137; format: cell-based, S. aureus; conditions: Table 2, S. aureus3137, MSSA
Procedure, shortened: as §1

K. pneumoniae 4105 = assay: MIC against K. pneumoniae 4105; format: cell-based; conditions: K. pneumoniae 4105, KPC-3, TEM-1, SHV-11
Method: as §2

C. freundii 2003 = assay: MIC against C. freundii 2003; format: cell-based; conditions: Table 2, C. freundii 2003, Caz R, IMP S
Procedure, shortened: as §1

E. cloacae 566 = assay: MIC against E. cloacae 566; format: cell-based; conditions: Table 2, E. cloacae 566, Caz R, IMP S
Procedure, shortened: as §1

E. cloacae 552 = assay: MIC against E. cloacae 552; format: cell-based; conditions: Table 2, E. cloacae 552, Caz S, IMP S
Procedure, shortened: as §1

K. baumanii 4094 = assay: MIC against K. baumanii 4094; format: cell-based; conditions: Table 2, K. baumanii 4094, OXA-51
Procedure, shortened: as §1

M. morganii 2409 = assay: MIC against M. morganii 2409; format: cell-based; conditions: Table 2, M. morganii 2409, High level cephase, β-Lactamase producing
Procedure, shortened: as §1

E. coli 4103 = assay: MIC against E. coli 4103; format: cell-based; conditions: Table 3, E. coli 4103, KPC-2, TEM-1, CMY-type
Method: as §2

K. pneumoniae 2712 = assay: MIC against K. pneumoniae 2712; format: cell-based; conditions: Table 3, K. pneumoniae 2712, KPC-3, VIM-1
Method: as §2

E. cloacae 2704 = assay: MIC against E. cloacae 2704; format: cell-based; conditions: Table 2, E. cloacae 2704, P99
Procedure, shortened: as §1

E. cloacae 2689 = assay: MIC against E. cloacae 2689; format: cell-based; conditions: Table 3, E. cloacae 2689, KPC-2
Method: as §2

E. cloacae596 = assay: MIC against E. cloacae596; format: cell-based, E. cloacae; conditions: Table 2, E. cloacae596, Caz R, IMP S
Procedure, shortened: as §1

E. coli 4101 = assay: MIC against E. coli 4101; format: cell-based; conditions: Table 2, E. coli 4101, CTX-M-14, TEM-1
Procedure, shortened: as §1

C. freundii 2487 = assay: MIC against C. freundii 2487; format: cell-based; conditions: Table 2, C. freundii 2487, Caz R, IMP S
Procedure, shortened: as §1

K. pneumoniae 4107 = assay: MIC against K. pneumoniae 4107; format: cell-based; conditions: K. pneumoniae 4107, KPC-2, TEM-1, SHV-11
Method: as §2

E. cloacae 2705 = assay: MIC against E. cloacae 2705; format: cell-based; conditions: Table 3, E. cloacae 2705, VIM-1, KPC-3type
Method: as §2

K. pneumoniae 4088 = assay: MIC against K. pneumoniae 4088; format: cell-based; conditions: Table 3, K. pneumoniae 4088, KPC-3
Method: as §2

P. aeruginosa 2573 = assay: MIC against P. aeruginosa 2573; format: cell-based; conditions: Table 2, P. aeruginosa 2573, OXA-10 (Class D)
Procedure, shortened: as §1

K. pneumoniae 2697 = assay: MIC against K. pneumoniae 2697; format: cell-based; conditions: Table 2, K. pneumoniae 2697, IMP-4
Procedure, shortened: as §1

[1] = tested on: S. pneumoniae ATCC 700673; assay: MIC against S. pneumoniae ATCC 700673; format: cell-based; conditions: Table 2, S. pneumoniae ATCC 700673, Pen R
Procedure, shortened: as §1

[2] = Staphylococcus aureus, alone, read-out: MIC
[3] = Table 2, in combination with NXL-104
[4] = Table 3, in combination with NXL-104
[5] = Citrobacter freundii, alone, read-out: MIC
[6] = Enterobacter cloacae, alone, read-out: MIC
[7] = Escherichia coli, alone, read-out: MIC
[8] = Klebsiella pneumoniae, alone, read-out: MIC

MIC (S. aureus 3147; [2]): 2 µg/mL
MIC (S. aureus 3147; in combination with NXL-104): 2.00 µg/mL
MIC (K. pneumoniae 4106; Klebsiella pneumoniae, 4106, Table 2, alone, read-out: MIC): 8 µg/mL (≈ 11.3 µM)
MIC (K. pneumoniae 4106; Klebsiella pneumoniae, 4106, Table 3, alone, read-out: MIC): > 32 µg/mL
MIC (K. pneumoniae 4106; [3]): 2.00 µg/mL
MIC (K. pneumoniae 4106; [4]): 4 µg/mL
MIC (C. freundii 15; [5]): 4 µg/mL
MIC (C. freundii 15; in combination with NXL-104): 0.50 µg/mL
MIC (S. aureus3137; [2]): 32 µg/mL
MIC (S. aureus3137; in combination with NXL-104): 32.00 µg/mL
MIC (K. pneumoniae 4105; Klebsiella pneumoniae, 4105, Table 2, alone, read-out: MIC): 32 µg/mL (≈ 45.1 µM)
MIC (K. pneumoniae 4105; Klebsiella pneumoniae, 4105, Table 3, alone, read-out: MIC): > 32 µg/mL
MIC (K. pneumoniae 4105; [3]): 2.00 µg/mL
MIC (K. pneumoniae 4105; [4]): 2 µg/mL
MIC (C. freundii 2003; [5]): 2 µg/mL
MIC (C. freundii 2003; in combination with NXL-104): 0.50 µg/mL
MIC (E. cloacae 566; [6]): 0.5 µg/mL
MIC (E. cloacae 566; in combination with NXL-104): 0.25 µg/mL
MIC (E. cloacae 552; [6]): 0.12 µg/mL
MIC (E. cloacae 552; in combination with NXL-104): 0.12 µg/mL
MIC (K. baumanii 4094; alone, read-out: MIC): 32 µg/mL
MIC (K. baumanii 4094; in combination with NXL-104): 8.00 µg/mL
MIC (M. morganii 2409; Morganella morganii, alone, read-out: MIC): 8 µg/mL
MIC (M. morganii 2409; in combination with NXL-104): 1.00 µg/mL
MIC (E. coli 4103; [7]): > 32 µg/mL
MIC (E. coli 4103; in combination with NXL-104): 8 µg/mL
MIC (K. pneumoniae 2712; [8]): > 32 µg/mL
MIC (K. pneumoniae 2712; in combination with NXL-104): 4 µg/mL
MIC (E. cloacae 2704; [6]): 4 µg/mL
MIC (E. cloacae 2704; in combination with NXL-104): 1.00 µg/mL
MIC (E. cloacae 2689; [6]): 8 µg/mL (≈ 11.3 µM)
MIC (E. cloacae 2689; in combination with NXL-104): 0.5 µg/mL
MIC (E. cloacae596; [6]): 0.5 µg/mL
MIC (E. cloacae596; in combination with NXL-104): 0.25 µg/mL
MIC (E. coli 4101; [7]): 0.5 µg/mL
MIC (E. coli 4101; in combination with NXL-104): 0.12 µg/mL
MIC (C. freundii 2487; [5]): 8 µg/mL
MIC (C. freundii 2487; in combination with NXL-104): 1.00 µg/mL
MIC (K. pneumoniae 4107; Klebsiella pneumoniae, 4107, Table 2, alone, read-out: MIC): 16 µg/mL (≈ 22.6 µM)
MIC (K. pneumoniae 4107; Klebsiella pneumoniae, 4107, Table 3, alone, read-out: MIC): > 32 µg/mL
MIC (K. pneumoniae 4107; [3]): 4.00 µg/mL
MIC (K. pneumoniae 4107; [4]): 2 µg/mL
MIC (E. cloacae 2705; [6]): > 32 µg/mL
MIC (E. cloacae 2705; in combination with NXL-104): >32 µg/mL
MIC (K. pneumoniae 4088; [8]): > 32 µg/mL
MIC (K. pneumoniae 4088; in combination with NXL-104): 4 µg/mL
MIC (P. aeruginosa 2573; Pseudomonas aeruginosa, alone, read-out: MIC): 2 µg/mL
MIC (P. aeruginosa 2573; in combination with NXL-104): 4.00 µg/mL
MIC (K. pneumoniae 2697; [8]): 4 µg/mL
MIC (K. pneumoniae 2697; in combination with NXL-104): 1.00 µg/mL
MIC ([1]; Streptococcus pneumoniae, ATCC700673, alone, read-out: MIC): 8 µg/mL
MIC ([1]; in combination with NXL-104): 8.00 µg/mL
SMILES: CC(C)(O/N=C(\C(=O)N[C@@H]1C(=O)N2C(C(=O)[O-])=C(C[n+]3ccc4n3CCN4Cc3ccc(C(=N)N)cc3)CS[C@H]12)c1csc(N)n1)C(=O)O [Example 2, (6R,7R)-7-{[(2Z)-2-(2-Amino-1,3-thiazol-4-yl)-2-{[(2-carboxypropan-2-yl)oxy]imino}acetyl]amino}-3-{[1-(4-carbamimidoylbenzyl)-2,3-dihydro-1H-imidazo[1,2-b]pyrazol-5-ium-5-yl]methyl}-8-oxo-5-thia-1-azabicyclo[4.2.0]oct-2-ene-2-carboxylate]
